Values after ≈ are worked out from the molar mass of the structure shown. Blank lines part the entries; values can stand above or below the compound they belong to.
Assays:
Assay in all cases: ≥ marks a high value that may be exact or a test limit, other limits are often not marked, values filed in µg/mL are converted to µM
[1] = tested on: Escherichia coli BL21
[2] = tested on: Pseudomonas aeruginosa PAO1
[3] = tested on: Streptococcus pyogenes M1T1 5448
[4] = tested on: Klebsiella aerogenes ATCC 13048
[5] = tested on: Enterococcus faecium E007
[6] = tested on: Pseudomonas aeruginosa PA14
[7] = tested on: Staphylococcus aureus ATCC 29231
[8] = tested on: Acinetobacter baumannii ATCC 7978
[9] = tested on: Escherichia coli W3110
[10] = tested on: Klebsiella pneumoniae ATCC BAA-1705
[11] = tested on: Staphylococcus epidermidis ATCC 12228
[12] = tested on: Enterococcus faecalis ATCC 29212
[13] = tested on: Escherichia coli ATCC 25922
[14] = tested on: Vibrio cholerae O1 Inaba
[15] = tested on: Listeria monocytogenes 10403s
[16] = tested on: Escherichia coli O157:H7
[17] = tested on: Bacillus cereus ATCC 11778
[18] = tested on: Salmonella enterica subsp. enterica serovar Typhimurium ATCC 13311
[19] = tested on: Acinetobacter baumannii
[20] = tested on: Staphylococcus aureus ATCC 25923
[21] = tested on: Shigella sonnei ATCC 11060
[22] = tested on: Pseudomonas aeruginosa ATCC 27853
[23] = tested on: Staphylococcus aureus MW2
[24] = tested on: Candida albicans ATCC 10231
[25] = tested on: Klebsiella pneumoniae WGLW2
[26] = tested on: Bacillus megaterium ATCC 13632
[27] = tested on: Bacillus subtilis ATCC 6051
[28] = tested on: Candida albicans ATCC 90028
[29] = tested on: Klebsiella pneumoniae ATCC 700603
[30] = tested on: Staphylococcus aureus ATCC 29213
[31] = tested on: Enterococcus faecium ATCC 35667
[32] = tested on: Candida tropicalis ATCC 750
[33] = tested on: Staphylococcus aureus ATCC 43300
[34] = tested on: Streptococcus pneumoniae ATCC 700677
[35] = tested on: Acinetobacter baumannii ATCC 19606
[36] = tested on: Cryptococcus neoformans ATCC 208821
[37] = tested on: Staphylococcus aureus VRSA1

- MIC [9]: 8 µM (≈ 18.7 µg/mL)
- MIC [10]: ≥ 64 µM
SMILES: CC[C@H](C)[C@H](NC(=O)[C@H](CCCN=C(N)N)NC(=O)[C@H](CCCN=C(N)N)NC(=O)[C@H](Cc1ccc(O)cc1)NC(=O)[C@H](CCCN=C(N)N)NC(=O)[C@H](CC(C)C)NC(=O)[C@H](CC(C)C)NC(=O)[C@H](CCCCN)NC(=O)[C@H](CC(C)C)NC(=O)CNC(=O)[C@H](Cc1c[nH]c2ccccc12)NC(=O)[C@H](CS)NC(=O)[C@H](C)NC(=O)[C@H](Cc1c[nH]c2ccccc12)NC(=O)[C@H](CCCN=C(N)N)NC(=O)[C@@H](N)Cc1c[nH]c2ccccc12)C(=O)N[C@@H](Cc1ccc(O)cc1)C(=O)O [WRWACWGLKLLRYRRIY]

- MIC [11]: > 188 µM
- MIC [12]: > 188 µM
- MIC [13]: > 188 µM
- MIC [15]: ≥ 188 µM
- MIC [16]: ≥ 188 µM
- MIC [17]: ≥ 188 µM
- MIC [18]: ≥ 188 µM
- MIC [19]: ≥ 188 µM
- MIC [20]: > 188 µM
- MIC [21]: ≥ 188 µM
- MIC [22]: > 188 µM
SMILES: CC(C)C[C@H](NC(=O)[C@@H](N)CCCN=C(N)N)C(=O)N[C@@H](Cc1ccccc1)C(=O)N[C@@H](CCCN=C(N)N)C(=O)N[C@@H](CCCN=C(N)N)C(=O)N[C@H](C(=O)N[C@@H](CCCCN)C(=O)N[C@@H](CCCCN)C(=O)N[C@H](C(=O)N[C@@H](C)C(=O)NCC(N)=O)C(C)C)C(C)C [RLFRRVKKVAG]
- MIC [14]: ≥ 188 µM

Second part, the compound before the results:

SMILES: CC[C@H](C)[C@H](NC(=O)[C@H](CCCCN)NC(=O)[C@H](C)NC(=O)[C@H](CCCN=C(N)N)NC(=O)[C@H](CCCCN)NC(=O)CNC(=O)[C@H](CCCCN)NC(=O)[C@H](CCC(=O)O)NC(=O)[C@H](CCC(N)=O)NC(=O)[C@@H](NC(=O)[C@H](CCCCN)NC(=O)[C@H](CCCCN)NC(=O)[C@H](CCCCN)NC(=O)[C@H](CC(C)C)NC(=O)[C@H](CCCN=C(N)N)NC(=O)[C@H](CCC(N)=O)NC(=O)[C@H](Cc1ccccc1)NC(=O)[C@@H](NC(=O)[C@@H](NC(=O)[C@H](CCC(=O)O)NC(=O)[C@H](CCCCN)NC(=O)CNC(=O)[C@H](C)N)[C@@H](C)O)[C@@H](C)CC)[C@@H](C)CC)C(=O)N[C@@H](C)C(=O)N[C@@H](Cc1c[nH]c2ccccc12)C(=O)O [AGKETIFQRLKKKIQEKGKRAKIAW]
- MIC [1]: 1 µM (≈ 2.96 µg/mL)
- MIC [2]: 32 µM (≈ 94.6 µg/mL)
- MIC [3]: 0.5 µM (≈ 1.48 µg/mL)

SMILES: CC[C@H](C)[C@H](NC(=O)[C@H](CCCCN)NC(=O)[C@H](CCCCN)NC(=O)[C@H](Cc1c[nH]c2ccccc12)NC(=O)[C@@H](NC(=O)[C@H](CCCCN)NC(=O)[C@H](Cc1c[nH]c2ccccc12)NC(=O)[C@@H](N)CC(C)C)[C@@H](C)CC)C(=O)N[C@@H](Cc1c[nH]c2ccccc12)C(=O)N[C@@H](CCCN=C(N)N)C(=O)N[C@H](C(=O)N[C@@H](Cc1c[nH]c2ccccc12)C(=O)N[C@@H](CCCCN)C(=O)N[C@@H](CC(N)=O)C(=O)N[C@@H](Cc1c[nH]c2ccccc12)C(=O)N[C@@H](CCCN=C(N)N)C(=O)O)C(C)C [LWKIWKKIWRVWKNWR]
- MIC [4]: 13.8 µM (≈ 32 µg/mL)
- MIC [5]: ≥ 55 µM
- MIC [6]: 13.8 µM (≈ 32 µg/mL)
- MIC [7]: 3.44 µM (≈ 8 µg/mL)
- MIC [8]: 27.5 µM (≈ 64 µg/mL)

SMILES: CC[C@H](C)[C@H](NC(=O)[C@H](CCCCN)NC(=O)[C@H](Cc1c[nH]c2ccccc12)NC(=O)[C@@H](N)CC(C)C)C(=O)NCC(=O)N[C@@H](Cc1c[nH]c2ccccc12)C(=O)N[C@@H](CCCCN)C(=O)N[C@H](C(=O)N[C@@H](Cc1c[nH]c2ccccc12)C(=O)N[C@@H](CCCN=C(N)N)C(=O)N[C@H](C(=O)NCC(=O)O)C(C)C)[C@@H](C)CC [LWKIGWKIWRVG]
- MIC [23]: ≥ 41.5 µM
- MIC [5]: ≥ 83 µM
- MIC [24]: 83 µM (≈ 128 µg/mL)
- MIC [25]: ≥ 41.5 µM
- MIC [7]: ≥ 41.5 µM
- MIC [8]: 20.8 µM (≈ 32 µg/mL)

SMILES: CC[C@H](C)[C@H](N)C(=O)N[C@@H](Cc1ccccc1)C(=O)NCC(=O)N[C@H](C(=O)N[C@H](C(=O)N[C@@H](CC(C)C)C(=O)NCC(=O)N[C@@H](Cc1ccccc1)C(=O)N[C@@H](CC(C)C)C(=O)N[C@@H](CCCCN)C(=O)NCC(=O)N[C@@H](CC(C)C)C(N)=O)[C@@H](C)CC)[C@@H](C)O [IFGTILGFLKGL]
- MIC [13]: 100 µM (≈ 128 µg/mL)
- MIC [26]: 12.5 µM (≈ 16 µg/mL)
- MIC [27]: 25 µM (≈ 32 µg/mL)
- MIC [28]: ≥ 100 µM
- MIC [29]: 200 µM (≈ 256 µg/mL)
- MIC [30]: 12.5 µM (≈ 16 µg/mL)
- MIC [31]: 25 µM (≈ 32 µg/mL)
- MIC [32]: 25 µM (≈ 32 µg/mL)
- MIC [33]: 12.5 µM (≈ 16 µg/mL)
- MIC [34]: 25 µM (≈ 32 µg/mL)
- MIC [35]: 100 µM (≈ 128 µg/mL)
- MIC [36]: 25 µM (≈ 32 µg/mL)
- MIC [37]: 12.5 µM (≈ 16 µg/mL)
- MIC [22]: > 200 µM
